# Source: PubChem BioAssay (NCI)
#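 Briefly, cells in 96-well plates were exposed to five compound concentrations for 48 h, and endpoints were estimated by linear interpolation. TGI is the concentration that stops growth completely.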
# Experiments:
# Experiment in all cases: DTP human tumour cell line panel, 48 h
# HOP-92 NSCLC = system: HOP-92 NSCLC
# HOP-62 NSCLC = system: HOP-62 NSCLC
# 786-0 renal = system: 786-0 renal
# SNB-75 CNS = system: SNB-75 CNS
# HOP-18 NSCLC = system: HOP-18 NSCLC
# DMS 114 small cell lung = system: DMS 114 small cell lung
# HT29 colon = system: HT29 colon
# CCRF-CEM leukemia = system: CCRF-CEM leukemia
# UO-31 renal = system: UO-31 renal
# SK-OV-3 ovarian = system: SK-OV-3 ovarian
# EKVX NSCLC = system: EKVX NSCLC
# SF-268 CNS = system: SF-268 CNS
# SN12C renal = system: SN12C renal
# SR leukemia = system: SR leukemia
# M19-MEL melanoma = system: M19-MEL melanoma
# OVCAR-3 ovarian = system: OVCAR-3 ovarian
# M14 melanoma = system: M14 melanoma
# NCI-H23 lung = system: NCI-H23 lung
# HCT-15 colon = system: HCT-15 colon
# A549 NSCLC = system: A549 NSCLC
# DLD-1 colon = system: DLD-1 colon
# KM20L2 colon = system: KM20L2 colon
# RPMI-8226 leukemia = system: RPMI-8226 leukemia
# OVCAR-8 ovarian = system: OVCAR-8 ovarian
# TK-10 renal = system: TK-10 renal
# A498 renal = system: A498 renal
# UACC-257 melanoma = system: UACC-257 melanoma
# NCI-H522 lung = system: NCI-H522 lung
# COLO 205 colon = system: COLO 205 colon
# ACHN renal = system: ACHN renal
# IGROV1 ovarian = system: IGROV1 ovarian
# SF-539 CNS = system: SF-539 CNS
# HCT-116 colon = system: HCT-116 colon
# MOLT-4 leukemia = system: MOLT-4 leukemia
# NCI-H460 lung = system: NCI-H460 lung
# NCI-H226 lung = system: NCI-H226 lung
# K-562 leukemia = system: K-562 leukemia
# SW-620 colon = system: SW-620 colon
# HL-60(TB) leukemia = system: HL-60(TB) leukemia
# SNB-19 CNS = system: SNB-19 CNS
# SF-295 CNS = system: SF-295 CNS
# RXF 393 renal = system: RXF 393 renal
# LOX IMVI melanoma = system: LOX IMVI melanoma
# KM12 colon = system: KM12 colon
# UACC-62 melanoma = system: UACC-62 melanoma
# OVCAR-4 ovarian = system: OVCAR-4 ovarian
# MALME-3M melanoma = system: MALME-3M melanoma
# SNB-78 CNS = system: SNB-78 CNS
# SK-MEL-28 melanoma = system: SK-MEL-28 melanoma
# DMS 273 small cell lung = system: DMS 273 small cell lung
# U251 CNS = system: U251 CNS
# LXFL 529 NSCLC = system: LXFL 529 NSCLC
# XF 498 CNS = system: XF 498 CNS
# SK-MEL-2 melanoma = system: SK-MEL-2 melanoma
# HCC-2998 colon = system: HCC-2998 colon
# CAKI-1 renal = system: CAKI-1 renal
# SK-MEL-5 melanoma = system: SK-MEL-5 melanoma
# OVCAR-5 ovarian = system: OVCAR-5 ovarian
compound,measurement,setting,value
COc1nc(NC2OCC(O)C(O)C2O)c(NC2OCC(O)C(O)C2O)c(=O)n1C (stereo not drawn),TGI,HOP-92 NSCLC,> 100 µM
same,TGI,HOP-62 NSCLC,> 100 µM
same,TGI,786-0 renal,> 100 µM
same,TGI,SNB-75 CNS,> 100 µM
same,TGI,HOP-18 NSCLC,> 100 µM
same,TGI,DMS 114 small cell lung,> 100 µM
same,TGI,HT29 colon,> 100 µM
same,TGI,CCRF-CEM leukemia,> 100 µM
same,TGI,UO-31 renal,> 100 µM
same,TGI,SK-OV-3 ovarian,> 100 µM
same,TGI,EKVX NSCLC,> 100 µM
same,TGI,SF-268 CNS,> 100 µM
same,TGI,SN12C renal,> 100 µM
same,TGI,SR leukemia,> 100 µM
same,TGI,M19-MEL melanoma,> 100 µM
same,TGI,OVCAR-3 ovarian,> 100 µM
same,TGI,M14 melanoma,> 100 µM
same,TGI,NCI-H23 lung,> 100 µM
same,TGI,HCT-15 colon,> 100 µM
same,TGI,A549 NSCLC,> 100 µM
same,TGI,DLD-1 colon,> 100 µM
same,TGI,KM20L2 colon,> 100 µM
same,TGI,RPMI-8226 leukemia,> 100 µM
same,TGI,OVCAR-8 ovarian,> 100 µM
same,TGI,TK-10 renal,> 100 µM
same,TGI,A498 renal,> 100 µM
same,TGI,UACC-257 melanoma,> 100 µM
same,TGI,NCI-H522 lung,> 100 µM
same,TGI,COLO 205 colon,> 100 µM
same,TGI,ACHN renal,> 100 µM
same,TGI,IGROV1 ovarian,> 100 µM
same,TGI,SF-539 CNS,> 100 µM
same,TGI,HCT-116 colon,> 100 µM
same,TGI,MOLT-4 leukemia,> 100 µM
same,TGI,NCI-H460 lung,> 100 µM
same,TGI,NCI-H226 lung,> 100 µM
same,TGI,K-562 leukemia,> 100 µM
same,TGI,SW-620 colon,> 100 µM
same,TGI,HL-60(TB) leukemia,> 100 µM
same,TGI,SNB-19 CNS,> 100 µM
same,TGI,SF-295 CNS,> 100 µM
same,TGI,RXF 393 renal,> 100 µM
same,TGI,LOX IMVI melanoma,> 100 µM
same,TGI,KM12 colon,> 100 µM
same,TGI,UACC-62 melanoma,> 100 µM
same,TGI,OVCAR-4 ovarian,> 100 µM
same,TGI,MALME-3M melanoma,> 100 µM
same,TGI,SNB-78 CNS,> 100 µM
same,TGI,SK-MEL-28 melanoma,> 100 µM
same,TGI,DMS 273 small cell lung,> 100 µM
same,TGI,U251 CNS,> 100 µM
same,TGI,LXFL 529 NSCLC,> 100 µM
same,TGI,XF 498 CNS,> 100 µM
same,TGI,SK-MEL-2 melanoma,> 100 µM
same,TGI,HCC-2998 colon,> 100 µM
Cc1c(C(=N)N)oc2ccccc12,TGI,HOP-92 NSCLC,> 100 µM
same,TGI,HOP-62 NSCLC,> 100 µM
same,TGI,786-0 renal,> 100 µM
same,TGI,SNB-75 CNS,> 100 µM
same,TGI,HOP-18 NSCLC,> 100 µM
same,TGI,DMS 114 small cell lung,> 100 µM
same,TGI,HT29 colon,> 100 µM
same,TGI,CCRF-CEM leukemia,> 100 µM
same,TGI,UO-31 renal,> 100 µM
same,TGI,SK-OV-3 ovarian,> 100 µM
same,TGI,EKVX NSCLC,> 100 µM
same,TGI,SF-268 CNS,> 100 µM
same,TGI,CAKI-1 renal,> 100 µM
same,TGI,SN12C renal,> 100 µM
same,TGI,SR leukemia,> 100 µM
same,TGI,M19-MEL melanoma,> 100 µM
same,TGI,OVCAR-3 ovarian,> 100 µM
same,TGI,SK-MEL-5 melanoma,> 100 µM
same,TGI,M14 melanoma,> 100 µM
same,TGI,NCI-H23 lung,> 100 µM
same,TGI,A549 NSCLC,> 100 µM
same,TGI,DLD-1 colon,> 100 µM
same,TGI,KM20L2 colon,> 100 µM
same,TGI,OVCAR-8 ovarian,> 100 µM
same,TGI,TK-10 renal,> 100 µM
same,TGI,A498 renal,> 100 µM
same,TGI,UACC-257 melanoma,> 100 µM
same,TGI,NCI-H522 lung,> 100 µM
same,TGI,COLO 205 colon,> 100 µM
same,TGI,ACHN renal,> 100 µM
same,TGI,IGROV1 ovarian,> 100 µM
same,TGI,SF-539 CNS,> 100 µM
same,TGI,HCT-116 colon,> 100 µM
same,TGI,MOLT-4 leukemia,> 100 µM
same,TGI,NCI-H460 lung,> 100 µM
same,TGI,NCI-H226 lung,> 100 µM
same,TGI,K-562 leukemia,> 100 µM
same,TGI,SW-620 colon,> 100 µM
same,TGI,HL-60(TB) leukemia,> 100 µM
same,TGI,SNB-19 CNS,> 100 µM
same,TGI,SF-295 CNS,> 100 µM
same,TGI,RXF 393 renal,> 100 µM
same,TGI,LOX IMVI melanoma,> 100 µM
same,TGI,KM12 colon,> 100 µM
same,TGI,UACC-62 melanoma,> 100 µM
same,TGI,OVCAR-4 ovarian,> 100 µM
same,TGI,MALME-3M melanoma,> 100 µM
same,TGI,SNB-78 CNS,> 100 µM
same,TGI,SK-MEL-28 melanoma,> 100 µM
same,TGI,U251 CNS,> 100 µM
same,TGI,LXFL 529 NSCLC,> 100 µM
same,TGI,XF 498 CNS,> 100 µM
same,TGI,HCC-2998 colon,> 100 µM
Cc1ccc(C2C(Cl)C(=O)N2n2cnc3ccccc3c2=O)cc1 (stereo not drawn),TGI,HOP-62 NSCLC,> 100 µM
same,TGI,786-0 renal,> 100 µM
same,TGI,SNB-75 CNS,> 100 µM
same,TGI,HOP-18 NSCLC,> 100 µM
same,TGI,DMS 114 small cell lung,> 100 µM
same,TGI,HT29 colon,> 100 µM
same,TGI,CCRF-CEM leukemia,> 100 µM
same,TGI,UO-31 renal,90.4 µM
same,TGI,SK-OV-3 ovarian,> 100 µM
same,TGI,EKVX NSCLC,> 100 µM
same,TGI,SF-268 CNS,> 100 µM
same,TGI,CAKI-1 renal,> 100 µM
same,TGI,SN12C renal,> 100 µM
same,TGI,SR leukemia,> 100 µM
same,TGI,M19-MEL melanoma,> 100 µM
same,TGI,OVCAR-3 ovarian,> 100 µM
same,TGI,SK-MEL-5 melanoma,> 100 µM
same,TGI,M14 melanoma,> 100 µM
same,TGI,NCI-H23 lung,> 100 µM
same,TGI,HCT-15 colon,> 100 µM
same,TGI,A549 NSCLC,> 100 µM
same,TGI,DLD-1 colon,> 100 µM
same,TGI,KM20L2 colon,> 100 µM
same,TGI,RPMI-8226 leukemia,> 100 µM
same,TGI,OVCAR-8 ovarian,> 100 µM
same,TGI,TK-10 renal,> 100 µM
same,TGI,UACC-257 melanoma,> 100 µM
same,TGI,NCI-H522 lung,> 100 µM
same,TGI,COLO 205 colon,> 100 µM
same,TGI,ACHN renal,> 100 µM
same,TGI,IGROV1 ovarian,> 100 µM
same,TGI,HCT-116 colon,> 100 µM
same,TGI,MOLT-4 leukemia,> 100 µM
same,TGI,NCI-H460 lung,> 100 µM
same,TGI,NCI-H226 lung,> 100 µM
same,TGI,K-562 leukemia,> 100 µM
same,TGI,SW-620 colon,> 100 µM
same,TGI,HL-60(TB) leukemia,> 100 µM
same,TGI,SNB-19 CNS,> 100 µM
same,TGI,SF-295 CNS,> 100 µM
same,TGI,RXF 393 renal,> 100 µM
same,TGI,LOX IMVI melanoma,> 100 µM
same,TGI,KM12 colon,> 100 µM
same,TGI,UACC-62 melanoma,> 100 µM
same,TGI,OVCAR-4 ovarian,> 100 µM
same,TGI,MALME-3M melanoma,> 100 µM
same,TGI,OVCAR-5 ovarian,> 100 µM
same,TGI,SNB-78 CNS,> 100 µM
same,TGI,SK-MEL-28 melanoma,> 100 µM
same,TGI,DMS 273 small cell lung,> 100 µM
same,TGI,U251 CNS,> 100 µM
same,TGI,LXFL 529 NSCLC,> 100 µM
same,TGI,XF 498 CNS,> 100 µM
same,TGI,SK-MEL-2 melanoma,> 100 µM
same,TGI,HCC-2998 colon,> 100 µM
